Laboratory results taken from PubChem BioAssay (NCI).
Where “and” joins values, the source holds several entries; their conditions need not be identical. Equal values may be shown once.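 A five-concentration, 48-hour dose response in 96-well plates underlies each endpoint, interpolated linearly between surrounding concentrations. Here, GI50 denotes the concentration required for 50% inhibition of growth. TGI: concentration producing complete growth inhibition.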

What was measured:
Assay in all cases: growth of human tumour cells (NCI), 48 h
K-562 leukemia = test system: K-562 leukemia
KM12 colon = test system: KM12 colon
KM20L2 colon = test system: KM20L2 colon
M19-MEL melanoma = test system: M19-MEL melanoma
NCI-H226 lung = test system: NCI-H226 lung
SF-268 CNS = test system: SF-268 CNS
SNB-75 CNS = test system: SNB-75 CNS
SNB-78 CNS = test system: SNB-78 CNS
SW-620 colon = test system: SW-620 colon
HS 578T breast = test system: HS 578T breast
PC-3 prostate = test system: PC-3 prostate
786-0 renal = test system: 786-0 renal

Compound `O=C(CC1Sc2ccccc2NC1=O)Nc1ccc(Cl)cc1` (centres undefined) has a TGI (K-562 leukemia) greater than 100 µM, a TGI (KM12 colon) greater than 100 µM and a TGI (KM20L2 colon) greater than 100 µM. The TGI (M19-MEL melanoma) was greater than 100 µM, the TGI (NCI-H226 lung) was greater than 100 µM and the TGI (SF-268 CNS) was greater than 100 µM. It also gave a TGI (SNB-75 CNS) greater than 100 µM, a TGI (SNB-78 CNS) greater than 100 µM and a TGI (SW-620 colon) greater than 100 µM.

`O=C1C=CC(=O)c2c(O)c(N3CCN(CCOCCO)CC3)c(Cl)c(O)c21` was tested, and the GI50 (HS 578T breast) was 0.218 µM, the GI50 (K-562 leukemia) was 0.265 µM and 0.0439 µM and the TGI (K-562 leukemia) was greater than 100 µM. For the same compound, the TGI (KM20L2 colon) was 2.07 µM, the TGI (M19-MEL melanoma) was 1.08 µM and the GI50 (NCI-H226 lung) was 2.69 µM. For the same compound, the TGI (NCI-H226 lung) was 4.68 µM [middle of 4 runs], the GI50 (PC-3 prostate) was 1.67 µM [middle of 4 runs] and the TGI (PC-3 prostate) was 3.23 µM [middle of 4 runs]. The TGI (SNB-75 CNS) was 3.16 µM [middle of 4 runs] and the TGI (SNB-78 CNS) was 1.35 µM.

Compound `O=C1C=CC(=O)c2c(Cl)ccc(O)c21` has a TGI (K-562 leukemia) greater than 74 µM, a TGI (KM12 colon) greater than 100 µM and a TGI (KM20L2 colon) of 18.5 µM. For the same compound, the TGI (M19-MEL melanoma) was 30 µM, the TGI (NCI-H226 lung) was greater than 100 µM and the TGI (SF-268 CNS) was 33.4 µM. For the same compound, the TGI (SNB-75 CNS) was greater than 63.4 µM, the TGI (SNB-78 CNS) was 41.2 µM and the TGI (SW-620 colon) was 31.4 µM.

`C#CCC1(C(=O)OCC)C(=O)c2ccccc2N(C)C1=O` (centres undefined) gave a TGI (K-562 leukemia) greater than 100 µM, a TGI (KM20L2 colon) greater than 100 µM and a TGI (M19-MEL melanoma) greater than 100 µM. The TGI (NCI-H226 lung) was greater than 100 µM, the TGI (SF-268 CNS) was greater than 100 µM and the TGI (SNB-75 CNS) was greater than 100 µM. The TGI (SNB-78 CNS) was greater than 100 µM and the TGI (SW-620 colon) was greater than 100 µM.

With `CO[C@H]1C[C@H](O[C@H]2CC[C@]3(C=O)[C@H]4CC[C@]5(C)[C@@H](C6=CC(=O)OC6)CC[C@]5(O)[C@@H]4CC[C@]3(O)C2)O[C@H](C)[C@H]1O` the TGI (786-0 renal) was 1.57 µM, the TGI (HS 578T breast) was greater than 31.6 µM and the TGI (K-562 leukemia) was 1.35 µM. It also gave a TGI (KM12 colon) of 1.93 µM, a TGI (NCI-H226 lung) of 1.28 µM and a TGI (PC-3 prostate) of 1.04 µM. The TGI (SF-268 CNS) was 0.577 µM, the TGI (SNB-75 CNS) was 3.13 µM and the TGI (SW-620 colon) was 2.71 µM.

Compound `O=[N+]([O-])c1cccnc1-n1cnc2ccccc21` has a TGI (786-0 renal) greater than 100 µM, a TGI (HS 578T breast) greater than 100 µM and a TGI (K-562 leukemia) greater than 100 µM. The TGI (KM12 colon) was greater than 100 µM, the TGI (NCI-H226 lung) was greater than 100 µM and the TGI (PC-3 prostate) was greater than 100 µM. It also gave a TGI (SF-268 CNS) greater than 100 µM, a TGI (SNB-75 CNS) greater than 100 µM and a TGI (SW-620 colon) greater than 100 µM.

With `COc1ccc2nc3n(c2c1)CCc1cc(OC)c(OC)cc1-3` the TGI (786-0 renal) was greater than 100 µM, the TGI (HS 578T breast) was greater than 100 µM and the TGI (K-562 leukemia) was greater than 100 µM. For the same compound, the TGI (KM12 colon) was greater than 100 µM, the TGI (NCI-H226 lung) was greater than 100 µM and the TGI (PC-3 prostate) was greater than 100 µM. It also gave a TGI (SF-268 CNS) greater than 100 µM, a TGI (SNB-75 CNS) greater than 100 µM and a TGI (SW-620 colon) greater than 100 µM.

Work on `CC(C)(C)C1CC[C@H](O)[C@H]([C@H](O)CC2CC(=O)N(c3ccccc3)C(=O)C2)C1` (some centres undefined) yielded a TGI (786-0 renal) greater than 100 µM, a TGI (HS 578T breast) greater than 100 µM and a TGI (K-562 leukemia) greater than 100 µM. For the same compound, the TGI (KM12 colon) was greater than 100 µM, the TGI (NCI-H226 lung) was greater than 100 µM and the TGI (PC-3 prostate) was greater than 100 µM. It also gave a TGI (SF-268 CNS) greater than 100 µM, a TGI (SNB-75 CNS) greater than 100 µM and a TGI (SW-620 colon) greater than 100 µM.

For `CC(=O)Nc1cc(Nc2cc(=O)[nH]c(=O)[nH]2)ccc1C`, the TGI (786-0 renal) was greater than 100 µM, the TGI (HS 578T breast) was greater than 100 µM and the TGI (K-562 leukemia) was greater than 100 µM. The TGI (KM12 colon) was greater than 100 µM, the TGI (NCI-H226 lung) was greater than 100 µM and the TGI (PC-3 prostate) was greater than 100 µM. The TGI (SF-268 CNS) was greater than 100 µM, the TGI (SNB-75 CNS) was greater than 100 µM and the TGI (SW-620 colon) was greater than 100 µM.

`CCN(CC)c1ccc2cc(-c3nc4ccccc4c(=O)[nH]3)c(=N)oc2c1` showed a TGI (786-0 renal) greater than 100 µM, a TGI (HS 578T breast) greater than 100 µM and a TGI (K-562 leukemia) greater than 100 µM. For the same compound, the TGI (KM12 colon) was greater than 100 µM, the TGI (NCI-H226 lung) was greater than 100 µM and the TGI (PC-3 prostate) was greater than 100 µM. The TGI (SF-268 CNS) was greater than 100 µM, the TGI (SNB-75 CNS) was greater than 100 µM and the TGI (SW-620 colon) was greater than 100 µM.

`CCOC(=O)C1CCCCN1CCc1c[nH]c2ccccc12` (centres undefined) showed a TGI (786-0 renal) greater than 100 µM, a TGI (HS 578T breast) greater than 100 µM and a TGI (K-562 leukemia) greater than 100 µM. It also gave a TGI (KM12 colon) greater than 100 µM, a TGI (NCI-H226 lung) greater than 100 µM and a TGI (PC-3 prostate) greater than 100 µM. The TGI (SF-268 CNS) was greater than 100 µM, the TGI (SNB-75 CNS) was greater than 100 µM and the TGI (SW-620 colon) was greater than 100 µM.

`NS(=O)(=O)c1ccc(NNc2c3ccccc3nc3c(C(=O)Nc4ccc(S(=O)(=O)Nc5ncccn5)cc4)cccc23)cc1` showed a TGI (786-0 renal) greater than 25 µM, a TGI (HS 578T breast) greater than 25 µM and a TGI (K-562 leukemia) greater than 25 µM. It also gave a TGI (KM12 colon) greater than 25 µM, a TGI (NCI-H226 lung) greater than 25 µM and a TGI (PC-3 prostate) greater than 25 µM. For the same compound, the TGI (SF-268 CNS) was greater than 25 µM, the TGI (SNB-75 CNS) was greater than 25 µM and the TGI (SW-620 colon) was greater than 25 µM.
